Source: patent US12570956B2, “Efficient derivation of stable pluripotent bovine embryonic stem cells” (The Regents of the University of California, priority 2018, dated 2026)
“Also recorded” adds a separate entry of the source.

What was measured:
[1] = system: bovine embryonic stem cells; assay: Immunostaining of pluripotency markers in bESCs grown with or without IWR1; assay type: cell-based; details: withdrawal of IWR1 from the culture media; four passages
Method: FIG. 3: Inhibition of the canonical Wnt-signaling pathway is a requirement for self-renewal of pluripotent CTFR-bESCs. Immunostaining of the core pluripotency markers POU5F1 and SOX2 in bovine embryonic stem cells grown in medium supplemented with or devoid of IWR1 (+IWR1 and −IWR1, respectively). Cells were grown for four passages in the two conditions before immunofluorescence analysis. Scale bar 100 μm.
(§1) Individual whole blastocysts or isolated ICMs were placed in separate wells of a 12-well dish seeded with a monolayer of gamma-irradiated mouse embryonic fibroblasts (MEF) and cultured in CTFR medium: a custom mTeSR-like basal medium (completely devoid of growth factors FGF2 and TGFβ) containing low fatty acid BSA (MP Biomedicals NZ), similar to basal medium in the published recipe(45) supplemented with 20 ng/ml human FGF2 and 2.5 μM IWR1 (CTFR), and incubated at 37° C. and 5% CO2.
Once established, CTFR-bESC lines were grown at 37° C. and 5% CO2 on wells containing MEF and passaged every 4-5 days at a 1:10 split ratio. To increase cell survival, optionally, ROCK inhibitor (Y-27632, 10 μM) was added to the wells 1 h prior to passage and was also added to the newly prepared wells containing MEF and fresh culture media medium during 24 hrs. Media change was done daily between passages. ROCK inhibitor is dispensable for routine maintenance and passaging of CTFR-bESCs. […]

[2] = system: bovine blastocysts; assay: Derivation of CTFR-bESC lines from plated blastocysts/ICMs; assay type: cell-based; details: IWR1 not present in the culture medium
Method: CTFR-bESCs derivation efficiency was measured as the percentage of embryos successfully establishing a CTFR-bESC line at passage 3 over the total number of embryos seeded. To optimize the CTFR-bESCs derivation efficiency, Applicants evaluated three different plating methods: whole blastocyst, mechanical isolation of the ICM by microdissection, and isolation of the ICM by immunosurgery. […] The initial outgrowths from the three methods were slightly different. The immunosurgery-derived outgrowths were smaller and more homogeneous in cell morphology than those from the other two methods.
as §1, with “recipe([…]),” for “recipe(45) supplemented with 20 ng/ml human FGF2 and 2.5 μM IWR1 (CTFR),”
Thereafter, the media was changed daily. Outgrowths (after 6-7 days in culture) were dissociated and passaged using TrypLE (Gibco, 12563011) and re-seeded in the presence of Rho Kinase (ROCK) inhibitor (Y-27632, 10 μM) onto newly prepared wells containing MEF and fresh medium (FIG. 1).

[3] = system: CTFR-bESCs; assay: Feeder-free culture of CTFR-bESCs on Matrigel or Vitronectin; assay type: cell-based, bovine; details: medium supplemented with Activin-A (10 ng/mL), four passages
Method: FIG. 9. CTFR-bESCs can be cultured in feeder-free conditions. Brightfield images and immunostaining for pluripotency markers OCT4 and SOX2 of CTFR-bESCs cultured for four passages on mouse embryonic fibroblast (MEF) feeder (Control) or different extracellular matrices (Matrigel or Vitronectin) conditions, with or without the supplementation of Activin-A (10 ng/mL). Control: inactivated MEFs.
Culturing CTFR-bESCs in absence of feeder cells lead to cellular differentiation after a few passages.

[4] = system: bovine blastocyst; details: added during in vitro pre-implantation development; cited from earlier work
[5] = system: CTFR-bESCs; assay: Routine maintenance and passaging of CTFR-bESCs; assay type: cell-based, bovine; details: Y-27632, 10 μM
Method: Once established, CTFR-bESC lines were grown at 37° C. and 5% CO2 on wells containing MEF and passaged every 4-5 days at a 1:10 split ratio. To increase cell survival, optionally, ROCK inhibitor (Y-27632, 10 μM) was added to the wells 1 h prior to passage and was also added to the newly prepared wells containing MEF and fresh culture media medium during 24 hrs. Media change was done daily between passages. ROCK inhibitor is dispensable for routine maintenance and passaging of CTFR-bESCs.

[6] = system: bovine embryos; details: in vitro treatment from day 5 to day 7 after fertilization; cited from earlier work

O=C(Nc1cccc2cccnc12)c1ccc(N2C(=O)[C@@H]3[C@H](C2=O)[C@@H]2C=C[C@H]3C2)cc1 [IWR1]
pluripotency marker expression (POU5F1, SOX2) [1]: loss of pluripotency marker expression
establishment of bESC line [2]: no bESC lines could be established

Activin-A: culture supplement used with an organic matrix to replace feeder cells
propagation and pluripotency marker expression (OCT4, SOX2) without feeder cells [3]: allowed the propagation of the cells for multiple passages while maintaining expression of pluripotency markers; also recorded: maintained expression of pluripotency markers and a morphology consistent with CTFR-bESC

COc1cccc(-c2cc(NCc3ccc4c(c3)OCO4)nc(N)n2)c1 [AMBMP, 2-amino-4-(3,4-(methylenedioxy)benzylamino)-6-(3-methoxyphenyl)pyrimidine]
bovine blastocyst development [4]: detrimental effects
total number of cells in the ICM [4]: reduces

C[C@@H](N)[C@H]1CC[C@H](C(=O)Nc2ccncc2)CC1 [Y-27632]
need for ROCK inhibitor in maintenance and passaging [5]: dispensable

B1: DKK1: protein inhibitor of the canonical WNT-signaling pathway, naturally secreted by the female reproductive tract (protein, UniProt O94907 32-266, looked up)
Dickkopf-related protein 1: TLNSVLNSNAIKNLPPPLGGAAGHPGSAVSAAPGILYPGGNKYQTIDNYQPYPCAEDEECGTDEYCASPTRGGDAGVQICLACRKRRKRCMRHAMCCPGNYCKNGICVSSDQNHFRGEIEETITESFGNDHSTLDGYSRRTTLSSKMYHTKGQEGSVCLRSSDCASGLCCARHFWSKICKPVLKEGQVCTKHRRKGSHGLEIFQRCYCGEGLSCRIQKDHHQASNSSRLHTCQRH
embryo survival after transfer to recipients [6]: significantly improve
